# Experimental data taken from paper PMC11436758, “Computer-aided drug design to generate a unique antibiotic family” (Nature Communications, 2024).
# Several values for one entry are separate records, joined by “and”; a condition that tells them apart may be missing. Identical values can stand only once.
# Legend:
# AcpS^N82/81A = target: T1, AcpS^N82/81A (Escherichia coli, UniProt P24224, N81A); assay: Inhibition of purified AcpS site-directed mutant by DNM0547; type: biochemical, E. coli; conditions: for AcpS rate nM/min, Mean / AcpS rate: Suppl Fig 3, [AcpS_N81A] 5nM; for AcpS rate: replicates
# T1 construct: 6x-His (C); made in house
# T1 sequence (P24224 whole entry N81A): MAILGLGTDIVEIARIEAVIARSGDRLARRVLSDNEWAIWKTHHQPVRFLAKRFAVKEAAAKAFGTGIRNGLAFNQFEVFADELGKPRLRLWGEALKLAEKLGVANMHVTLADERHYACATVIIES
# MRSA (ATCC 33591) = assay: MIC, CLSI broth microdilution; type: cell-based, S. aureus; conditions: three individual replicates
# Description: The medium employed for the assay was Mueller Hinton II Broth (MHB II; Becton-Dickinson, Sparks, MD, USA). Agar plates used for the organisms were trypticase soy agar plus 5% sheep blood (BD; Sparks, MD, USA). MIC assay plates were prepared using the CLSI broth microdilution procedure. Automated liquid handlers (Multidrop 384, Biomek 2000 and Biomek FX) were used to conduct serial dilutions and liquid transfers. A standardized inoculum of each organism was prepared per CLSI methods. Suspensions were prepared to equal a 0.5 McFarland standard, followed by a 1:20 dilution in test media. The inocula were dispensed into sterile reservoirs divided by length (Beckman Colter) and the Biomek 2000 was used to inoculate the plates. Daughter plates were placed on the Biomek 2000 work surface in reverse orientation so that inoculation took place from low to high drug concentration. The Biomek 2000 delivered 10 μL of the diluted suspension into each well. These inoculations yielded a final cell concentration in the daughter plates of ~5 × 10^5 colony-forming units/mL in each well. The wells of the daughter plates ultimately contained 185 μL of broth, 5 μL of drug solution, and 10 μL of bacterial inoculum. Plates were covered with a sterile lid on the top plate, placed in plastic bags, and incubated at 35 °C for ~18 h. The microplates were viewed from the bottom using a plate viewer and the MIC was read. The MIC was recorded as the lowest concentration of drug that inhibited visible growth of the organism. Uninoculated solubility control plates were also observed for evidence of drug precipitation.
# [1] = test system: MRSA MMX 2119 (NRS23, USA100) and MRSA MMX 4675 (ATCC BAA-1556, USA300); assay: Time kill; type: cell-based, S. aureus; conditions: for drop in surviving bacteria: two strains of MRSA
# Description: We also sought to determine if DNM0547 was bacteriostatic or bactericidal. Time kill experiments were carried out using increasing doses of DNM0547 against two different strains of MRSA.
# Supplementary Figure 5. Time kill of DNM0547 versus S. aureus. The time kill of DNM0547
# 4675 (ATCC BAA-1556, USA300) were determined. Representative experiments are shown. […]
# [2] = test system: E. coli D22 over-expressing AcpS; assay: MIC upon IPTG-induced over-expression of MBP-AcpS (MBP only as control); type: cell-based
# From the text: Over-expression of AcpS was confirmed by western blot (Supplementary Fig. 6b). This is consistent with inhibition of AcpS being the major mechanism of action for the antimicrobial activity of DNM0547.
# Supplementary Figure 6. Increased expression of AcpS increases the MIC of DNM0547. a , the minimum inhibitory concentration (MIC; µg/ml) of the D22 strain of E. coli upon expression of plasmid borne maltose binding protein (MBP) AcpS from an IPTG inducible promoter versus just over-expression of MBP only. The D22 strain of E. coli has a porous outer membrane due to a point mutation in the lpxC gene enabling some compounds to enter the cell that can not permeate wild type E. coli. AcpS is expressed as a fusion with MBP. MICs were determined upon IPTG induction of MBP-AcpS with expression of just MBP used as control. b, western blot against MBP (New England Biolabs E8032S, 1:1000 dilution) to assess expression; IPTG induced expression of MBP and MBP-AcpS at the expected M Wts. c, equal protein was added from each E. coli protein extract used for the western blot. Ponceau stain of the membrane to assess protein loading and transfer.
# (also on this page, place not known: DH5a BL 21 D 22 pMAL pMAL pAcpS pAcpS pMAL pMAL pAcpS pAcpS pMAL + pMAL pAcpS + pAcpS - - + - + - + - + - a, AcpS MBP M Compound MBP MBP-AcpS DNM0547 32 256) […]
smiles,measurement,setting,value
CC(C)c1cc(Cl)ccc1-c1cc(-c2nnn[nH]2)c(-c2ccc(Cl)cc2C(C)C)s1 [DNM0547],IC50,AcpS^N82/81A,5 µM
same,"AcpS rate nM/min, Mean",AcpS^N82/81A; Drug Conc 1 uM,7.81 nM/min
same,AcpS rate,AcpS^N82/81A; Drug Conc 1 uM,7.96 nM/min and 7.81 nM/min and 7.64 nM/min
same,"AcpS rate nM/min, Mean",AcpS^N82/81A; Drug Conc 2 uM,6.86 nM/min
same,AcpS rate,AcpS^N82/81A; Drug Conc 2 uM,6.91 nM/min and 7.01 nM/min and 6.66 nM/min
same,"AcpS rate nM/min, Mean",AcpS^N82/81A; Drug Conc 4 uM,4.72 nM/min
same,AcpS rate,AcpS^N82/81A; Drug Conc 4 uM,4.74 nM/min and 4.76 nM/min and 4.66 nM/min
same,"AcpS rate nM/min, Mean",AcpS^N82/81A; Drug Conc 8 uM,3.23 nM/min
same,AcpS rate,AcpS^N82/81A; Drug Conc 8 uM,2.93 nM/min and 3.30 nM/min and 3.44 nM/min
same,"AcpS rate nM/min, Mean",AcpS^N82/81A; Drug Conc 16 uM,2.83 nM/min
same,AcpS rate,AcpS^N82/81A; Drug Conc 16 uM,3.20 nM/min and 2.39 nM/min and 2.90 nM/min
same,"AcpS rate nM/min, Mean",AcpS^N82/81A; Drug Conc 32 uM,1.69 nM/min
same,AcpS rate,AcpS^N82/81A; Drug Conc 32 uM,1.65 nM/min and 1.74 nM/min and 1.68 nM/min
same,"AcpS rate nM/min, Mean",AcpS^N82/81A; Drug Conc 64 uM,1.60 nM/min
same,AcpS rate,AcpS^N82/81A; Drug Conc 64 uM,1.52 nM/min and 1.63 nM/min and 1.65 nM/min
same,"AcpS rate nM/min, Mean",AcpS^N82/81A; Drug Conc 128 uM,1.34 nM/min
same,AcpS rate,AcpS^N82/81A; Drug Conc 128 uM,1.38 nM/min and 1.44 nM/min and 1.20 nM/min
same,remaining activity at 1 µM,"AcpS^N82/81A; read-out: % of untreated, Suppl Fig 3, [AcpS_N81A] 5nM, Drug Conc 1 uM, replicates",105%
same,remaining activity at 2 µM,"AcpS^N82/81A; read-out: % of untreated, Suppl Fig 3, [AcpS_N81A] 5nM, Drug Conc 2 uM, replicates",90.9%
same,remaining activity at 4 µM,"AcpS^N82/81A; read-out: % of untreated, Suppl Fig 3, [AcpS_N81A] 5nM, Drug Conc 4 uM, replicates",62.4%
same,remaining activity at 8 µM,"AcpS^N82/81A; read-out: % of untreated, Suppl Fig 3, [AcpS_N81A] 5nM, Drug Conc 8 uM, replicates",38.5%
same,remaining activity at 16 µM,"AcpS^N82/81A; read-out: % of untreated, Suppl Fig 3, [AcpS_N81A] 5nM, Drug Conc 16 uM, replicates",42.1%
same,remaining activity at 32 µM,"AcpS^N82/81A; read-out: % of untreated, Suppl Fig 3, [AcpS_N81A] 5nM, Drug Conc 32 uM, replicates",21.7%
same,remaining activity at 64 µM,"AcpS^N82/81A; read-out: % of untreated, Suppl Fig 3, [AcpS_N81A] 5nM, Drug Conc 64 uM, replicates",20%
same,remaining activity at 128 µM,"AcpS^N82/81A; read-out: % of untreated, Suppl Fig 3, [AcpS_N81A] 5nM, Drug Conc 128 uM, replicates",18.1%
same,MIC,MRSA (ATCC 33591),2 µg/mL
same,drop in surviving bacteria,"[1]; 2x MIC, at 2 h and 6 h",three
same,drop in surviving bacteria,"[1]; 4x and 8x MIC, at 2 h",three
same,CFU/mL,"[1]; Suppl Fig 5a, S. aureus MMX 2119, 2X, 0 hr",7.70E+05 CFU/mL
same,CFU/mL,"[1]; Suppl Fig 5a, S. aureus MMX 2119, 2X, 2 hr",6.00E+02 CFU/mL
same,CFU/mL,"[1]; Suppl Fig 5a, S. aureus MMX 2119, 2X, 6 hr",3.00E+02 CFU/mL
same,CFU/mL,"[1]; Suppl Fig 5a, S. aureus MMX 2119, 2X, 24 hr",LOD
same,CFU/mL,"[1]; Suppl Fig 5a, S. aureus MMX 2119, 4X, 0 hr",7.70E+05 CFU/mL
same,CFU/mL,"[1]; Suppl Fig 5a, S. aureus MMX 2119, 4X, 2 hr",4.50E+02 CFU/mL
same,CFU/mL,"[1]; Suppl Fig 5a, S. aureus MMX 2119, 4X, 6 hr",1.50E+02 CFU/mL
same,CFU/mL,"[1]; Suppl Fig 5a, S. aureus MMX 2119, 4X, 24 hr",LOD
same,CFU/mL,"[1]; Suppl Fig 5a, S. aureus MMX 2119, 8X, 0 hr",7.70E+05 CFU/mL
same,CFU/mL,"[1]; Suppl Fig 5a, S. aureus MMX 2119, 8X, 2 hr",LOD
same,CFU/mL,"[1]; Suppl Fig 5a, S. aureus MMX 2119, 8X, 6 hr",LOD
same,CFU/mL,"[1]; Suppl Fig 5a, S. aureus MMX 2119, 8X, 24 hr",LOD
same,CFU/mL,"[1]; Suppl Fig 5b, S. aureus MMX 4657, 2X, 0 hr",1.01E+06 CFU/mL
same,CFU/mL,"[1]; Suppl Fig 5b, S. aureus MMX 4657, 2X, 2 hr",1.05E+03 CFU/mL
same,CFU/mL,"[1]; Suppl Fig 5b, S. aureus MMX 4657, 2X, 6 hr",LOD
same,CFU/mL,"[1]; Suppl Fig 5b, S. aureus MMX 4657, 2X, 24 hr",LOD
same,CFU/mL,"[1]; Suppl Fig 5b, S. aureus MMX 4657, 4X, 0 hr",1.01E+06 CFU/mL
same,CFU/mL,"[1]; Suppl Fig 5b, S. aureus MMX 4657, 4X, 2 hr",2.50E+02 CFU/mL
same,CFU/mL,"[1]; Suppl Fig 5b, S. aureus MMX 4657, 4X, 6 hr",LOD
same,CFU/mL,"[1]; Suppl Fig 5b, S. aureus MMX 4657, 4X, 24 hr",LOD
same,CFU/mL,"[1]; Suppl Fig 5b, S. aureus MMX 4657, 8X, 0 hr",1.01E+06 CFU/mL
same,CFU/mL,"[1]; Suppl Fig 5b, S. aureus MMX 4657, 8X, 2 hr",LOD
same,CFU/mL,"[1]; Suppl Fig 5b, S. aureus MMX 4657, 8X, 6 hr",LOD
same,CFU/mL,"[1]; Suppl Fig 5b, S. aureus MMX 4657, 8X, 24 hr",LOD
same,MIC,"[2]; E. coli D22, IPTG-induced MBP only (control)",32 µg/mL
same,MIC,"[2]; E. coli D22, IPTG-induced MBP-AcpS",256 µg/mL
same,MIC,"[2]; Escherichia coli, E. coli D22 with over-expression of AcpS",256 µg/mL
same,MIC,"[2]; Escherichia coli, Suppl Fig 6a, MBP (control), replicates",32 µg/mL
same,MIC,"[2]; Escherichia coli, Suppl Fig 6a, MBP-AcpS, replicates",256 µg/mL
same,MIC,"[2]; Suppl Fig 6a, MBP (control), replicates",32 µg/mL
same,MIC,"[2]; Suppl Fig 6a, MBP-AcpS, replicates",256 µg/mL and >256 µg/mL
